This assay addresses G protein-coupled receptor 35 (GPR35) (Homo sapiens, UniProt Q9HC97). The assay can be described thus: GPR35 internalization by flow cytometry in NCM460 cells. The format is cell-based. (In flow cytometry, cells or beads pass a laser one at a time.)

The structures appear in SMILES notation. pEC50: −log10 of the molar value.

G protein-coupled receptor 35 (GPR35), sequence (Q9HC97 whole entry): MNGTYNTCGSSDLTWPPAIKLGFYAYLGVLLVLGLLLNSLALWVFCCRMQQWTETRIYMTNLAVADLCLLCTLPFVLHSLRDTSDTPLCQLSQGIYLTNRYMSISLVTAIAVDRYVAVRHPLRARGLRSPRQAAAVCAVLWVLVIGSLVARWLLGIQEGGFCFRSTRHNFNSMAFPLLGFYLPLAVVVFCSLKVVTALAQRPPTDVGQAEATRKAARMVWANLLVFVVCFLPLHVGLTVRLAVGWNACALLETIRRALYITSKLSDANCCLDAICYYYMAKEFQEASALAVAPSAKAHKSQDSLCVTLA

`O=C(O)c1cc(=O)c2ccccc2[nH]1` [KA, kynurenic acid] showed a pEC50 of 4.34.

In general, pEC50 refers to the negative decadic logarithm of the EC50, by convention in mol/L. A low value points to a high EC50.

The values above are taken from article PMC7982426 (Acta Pharmaceutica Sinica. B, 2020).
